{
  "source": "patent US20030181475A1",
  "about": "“Method of administering buprenorphine to treat depression” (EURO-CELTIQUE S.A., priority 2002, published 2003)",
  "origin": "cited, not measured here",
  "tested_on": "depressed patients",
  "settings": "literature clinical reports",
  "data": [
    {"compound": "COc1ccc2c3c1O[C@H]1[C@@H](O)C=C[C@H]4[C@@H](C2)N(C)CC[C@@]341", "note": "[codeine]", "values": [
      {"measurement": "anti-depressive / therapeutic effect in depressed patients", "value": "no anti-depressive effect"}
    ]},
    {"compound": "CCC(=O)C(CC(C)N(C)C)(c1ccccc1)c1ccccc1", "note": "(centres unmarked) [methadone]", "values": [
      {"measurement": "anti-depressive / therapeutic effect in depressed patients", "value": "conflicting"}
    ]},
    {"compound": "CN1CC[C@]23c4c5ccc(O)c4O[C@H]2[C@@H](O)C=C[C@H]3[C@H]1C5", "note": "[morphine]", "values": [
      {"measurement": "anti-depressive / therapeutic effect in depressed patients", "value": "conflicting"}
    ]},
    {"compound": "COc1cccc(C2(O)CCCCC2CN(C)C)c1", "note": "(centres unmarked) [tramadol]", "values": [
      {"measurement": "anti-depressive / therapeutic effect in depressed patients", "value": "helped a patient with refractory major depression"}
    ]},
    {"compound": "β-endorphin (YGGFMTSEKSQTPLVTLFKNAIIKNAYKKGE; Beta-endorphin; UniProt P01189 237-267, looked up) [an endogenous opioid]", "values": [
      {"measurement": "anti-depressive / therapeutic effect in depressed patients", "value": "no or little observable therapeutic effect"}
    ]}
  ]
}
